The subject of series [1] is Canidae. Particulars: chronic; duration: 23 weeks; oral; gavage; Beagle.
For the next series, the system named is Cricetulus sp. Particulars: duration: 1 days, injection, Other.
For a further series, the system named is Monkey. Particulars: chronic, duration: 18 months.
The test system of series [2] is Mus musculus. As to conditions: for LD50: acute.
The test system of series [3] is Oryctolagus sp.
The subject of series [4] is Rattus norvegicus. Particulars: for LD50: acute.
The test system of another series is Sus scrofa. Particulars: chronic; duration: 123 days; dermal; Not specified.
Series [5] concerns Rattus norvegicus. The series can be described thus: LC0; higher = less toxic. Particulars: acute; inhalation; Sprague-Dawley.
Series [6] concerns Homo sapiens. Particulars: clinical; duration: 16 days; oral; M/F; plasma cholinesterase inhibition.
For series [7], the system named is Rattus norvegicus. As to conditions: repeat dose other; oral.
Series [8] relates to Oryctolagus sp. Particulars: developmental; oral; F; excessive loss of litters.
Series [9] concerns Rattus norvegicus. As to conditions: Sprague-Dawley.
For series [10], the system named is Mus musculus. As to conditions: uterotrophic, Active.
Series [11] concerns Rattus norvegicus. As to conditions: uterotrophic, Active.
In series [12] the test system is Oryctolagus sp. As to conditions: reproduction developmental; duration: 13 days; oral; gavage; Reproduction: Loss of litters.
In series [13] the test system is Mus musculus. Particulars: developmental; inhalation; M/F; developmental toxicity (skeletal variations).
For series [14], the system named is Rattus norvegicus. Particulars: developmental; oral; drinking water; M/F; reduced pup body weight.
The test system of series [15] is Homo sapiens. As to conditions: clinical, neurological.
For series [16], the system named is Mus musculus. As to conditions: developmental; duration: 10 days; inhalation; intermittent; Fetus: Decreased birth weight.
The test system of series [17] is Rattus norvegicus. Particulars: developmental; oral; drinking water; Fetus: Decreased birth weight.
In series [18] the test system is Rattus norvegicus. Briefly: LD5; higher = less toxic. Particulars: developmental; oral; drinking water; M/F; reduced pup body weight.
The test system of series [19] is Homo sapiens. As to conditions: clinical; oral; Cholinesterase: Decreased cholinesterase activity.
Series [20] relates to Canidae. Particulars: subchronic; duration: 13 weeks; oral; diet; F; Beagle.
Where [21] appears, read: subchronic, duration: 30 days, dermal, New Zealand.
The mark [22] stands for this setting: chronic, duration: 18 months, oral, gavage, Sprague-Dawley.
Setting [23] is: subchronic, duration: 13 weeks, inhalation, Sprague-Dawley.

Experimental findings from EPA's ToxValDB 9.5 are described below.

“And” between values parts separate entries of the source, which are not always exact repeats. Identical values can stand only once.

The LOAEL is the lowest dose or exposure tested at which an adverse effect was seen. As usually defined, the NOAEL is the highest dose or exposure tested at which no adverse effect was seen. As usually defined, the LD50 is the dose expected to kill half of the subjects tested. For the molecule `CS(C)=O` [Dimethyl sulfoxide], the LOAEL with Canidae [1] worked out at 2500 mg/kg-day; in the series on Monkey (oral, gavage) it was 8910 mg/kg-day; in the series on Mus musculus [2] (short-term, duration: 3 weeks, oral, gavage, Swiss), 2000 mg/kg-day; in the series on Oryctolagus sp. [3] (chronic, duration: 6 months, dermal, New Zealand), 1650 mg/kg-day; with Oryctolagus sp. [3] (chronic, duration: 22 weeks, dermal, New Zealand), 1650 mg/kg-day; in the series with Oryctolagus sp. [3] (setting [21]), 5000 mg/kg-day. The molecule further had an LOAEL in the series on Rattus norvegicus [4] (setting [22]) of 9900 mg/kg-day. In addition, the NOAEL in the series with Cricetulus sp. (developmental, Intraperitoneal) was less than 5500 mg/kg-day; in the series with Cricetulus sp. (developmental, intravenous, intraperitoneal), 2500 mg/kg-day; in the series with Cricetulus sp. (reproduction developmental, Intraperitoneal, F), less than 5500 mg/kg-day; in the series with Cricetulus sp. (reproduction developmental, intravenous, intraperitoneal, F), 2500 mg/kg-day; in the series with Monkey (dermal), 8910 mg/kg-day; with Monkey (oral, gavage), 2970 mg/kg-day. The no observed adverse effect level (NOAEL) with Mus musculus [2] (developmental, duration: 7 days, oral, gavage, Swiss) amounted to 12000 mg/kg-day; in the series on Mus musculus [2] (subchronic, duration: 5 weeks, injection, Intraperitoneal, Swiss), 2500 mg/kg-day; with Oryctolagus sp. [3] (developmental, duration: 9 days, injection, subcutaneous), 4000 mg/kg-day; in the series on Oryctolagus sp. [3] (developmental, duration: 9 days, oral, gavage), 5000 mg/kg-day; in the series with Oryctolagus sp. [3] (developmental, injection, subcutaneous), 4000 mg/kg-day; in the series with Oryctolagus sp. [3] (setting [21]), 1000 mg/kg-day. Besides, the NOAEL is 2200 mg/kg-day in the series on Oryctolagus sp. [3] (subchronic, duration: 90 days, dermal, New Zealand); 1100 mg/kg-day in the series on Rattus norvegicus [4] (setting [22]); less than 10200 mg/kg-day in the series with Rattus norvegicus [4] (developmental, duration: 1 days, injection, subcutaneous, Sprague-Dawley); 10000 mg/kg-day with Rattus norvegicus [4] (reproduction developmental, duration: 6 days, oral, gavage, Wistar, generation: F1); less than 2000 mg/kg-day in the series with Rattus norvegicus [4] (reproduction developmental, duration: 10 days, injection, Intraperitoneal, F); 5000 mg/kg-day in the series with Rattus norvegicus [4] (reproduction developmental, oral, gavage, Sprague-Dawley, generation: F0). Moreover, the no observed adverse effect level (NOAEL) in the series with Rattus norvegicus [4] (reproduction developmental, oral, gavage, Sprague-Dawley, generation: F1) stood at 5000 mg/kg-day; in the series with Sus scrofa, 825 mg/kg-day. Further, the LD50 in the series on Mus musculus [2] (dermal) is 50000 mg/kg; with Mus musculus [2] (injection, intravenous), 3100 mg/kg and 5750 mg/kg; in the series with Mus musculus [2] (oral), ≥ 19200 mg/kg and ≤ 22000 mg/kg; in the series on Rattus norvegicus [4] (dermal), 40000 mg/kg; with Rattus norvegicus [4] (injection, intravenous) it was 5360 mg/kg; in the series on Rattus norvegicus [4] (oral, gavage), 28300 mg/kg. For the same molecule, the NOAEC with Rattus norvegicus [4] (subchronic, duration: 6 weeks, inhalation, Sprague-Dawley) is 0.2 mg/L; in the series with Rattus norvegicus [4] (setting [23]) it was 0.964 mg/L. The molecule further returned an LOAEC with Rattus norvegicus [4] (setting [23]) of 2.78 mg/L. In the series with Rattus norvegicus [5], this molecule registered an LC0 greater than 2.9 mg/L.
For the molecule `O=P(O)(O)CCCl` [Ethephon], in the series on Homo sapiens [6], the LEL amounted to 0.5 mg/kg-day.
As for `COc1ccc(C(c2ccc(OC)cc2)C(Cl)(Cl)Cl)cc1` [Methoxychlor], the LOAEL in the series on Rattus norvegicus [7] amounted to 8 mg/kg-day; with Rattus norvegicus [9] (reproduction developmental, duration: 364 days, oral, gavage, M/F, reproductive), 5 mg/kg-day. Also, the NOAEL with Rattus norvegicus [7] came to 4 mg/kg-day. Moreover, the LEL with Oryctolagus sp. [8] was 35.5 mg/kg-day; in the series on Mus musculus [10] (duration: 3 days, oral), 1 mg/day; in the series with Mus musculus [10] (duration: 4 days, injection, subcutaneous), 100 mg/kg-day; in the series with Mus musculus [10] (duration: 5 days, injection, subcutaneous) it was 10 mg/kg-day; in the series with Rattus norvegicus [11] (duration: 1 days, injection, intraperitoneal), 10 mg and 5 mg/day; with Rattus norvegicus [11] (duration: 1 days, oral), 125 mg/kg-day. The LEL with Rattus norvegicus [11] (duration: 4 days, injection, intraperitoneal) is 0.75 mg/kg-day; in the series on Rattus norvegicus [11] (duration: 7 days, injection, subcutaneous), 100 mg/kg-day; with Rattus norvegicus [11] (duration: 7 days, oral), 50 mg/kg-day; in the series on Rattus norvegicus [11] (duration: 42 days, oral, diet), 500 ppm; in the series with Rattus norvegicus [11] (duration: 98 days, oral, diet), 1500 ppm. Moreover, the NOEL with Oryctolagus sp. [8] and with Oryctolagus sp. [12] was 5.01 mg/kg-day in each case.
As for `CCC(C)=O` [Methyl ethyl ketone], the lowest observed adverse effect level (LOAEL) in the series with Rattus norvegicus [7] stood at 4570 mg/kg-day; in the series with Rattus norvegicus [14], 1770 mg/kg-day; in the series with Homo sapiens [15] (duration: 6 hours, inhalation, M/F), 292 mg/m3. For the same molecule, the NOAEL in the series on Rattus norvegicus [7] stood at 1770 mg/kg-day; in the series with Rattus norvegicus [14] it was 594 mg/kg-day; in the series with Mus musculus [16], 2980 mg/m3; in the series with Rattus norvegicus [17], 1710 mg/kg-day. The molecule also came in with an LEC in the series with Mus musculus [13] of 5200 mg/m3. The LD5 with Rattus norvegicus [18] was determined as 639 mg/kg-day.
`CCOP(=S)(OCC)Oc1ccc([N+](=O)[O-])cc1` [Parathion]: the no observed adverse effect level (NOAEL) in the series on Homo sapiens [15] (duration: 30 days, oral, capsule, M) turned out to be 0.09 mg/kg-day; in the series on Rattus norvegicus [9] (subchronic, duration: 6 weeks, inhalation, whole body, M, neurological), 0.01 mg/m3; in the series with Homo sapiens [19] it was 0.064 mg/kg-day.
In the case of `c1ccc2c(c1)Nc1ccccc1S2` [Phenothiazine], the NOAEL in the series with Canidae [20] came to 1.59 mg/kg-day.
